This is an account of results in patent US20220389061A1, “IMMUNOMODULATORS” (priority 2019, published 2022).

A word on the IC50: it is the concentration that inhibits the measured activity by half.

Positions of bridges follow the written chain, without caps; N, C: chain ends. Non-standard residues stand in square brackets, D forms with d. Residues, ends and D or L forms follow the SMILES beside them. *: point of attachment. Trp(1-CH2COOH) = N[C@@H](Cc1cn(CC(=O)O)c2ccccc12)C(=O)O; X65 = CC(C)(C)OC(=O)Nc1ccc(NC(=S)*)cc1; X95 = O=[N+]([O-])c1cccc(NC(=S)*)c1; X50 = COc1cc(NC(=S)*)ccc1-c1cnco1; Hyp = O=C(O)[C@@H]1C[C@@H](O)CN1; X44 = FC(F)(F)c1ccc(NC(=S)*)cc1; NMeNle = CCCC[C@H](NC)C(=O)O; X85 = S=C(Nc1c(Cl)cccc1Cl)*; X9 = Fc1ccc(NC(=S)*)c(Cl)c1; NMeA = CN[C@@H](C)C(=O)O; Dab = NCC[C@H](N)C(=O)O; Dap = NC[C@H](N)C(=O)O

For the first test, the target named is T1, PD-1/PD-L1 (Homo sapiens, UniProt Q9NZQ7).
T1 construct: TVMV protease site linker (C); made in house; host or cells: HEK293T cells
T1 sequence (Q9NZQ7 18-239): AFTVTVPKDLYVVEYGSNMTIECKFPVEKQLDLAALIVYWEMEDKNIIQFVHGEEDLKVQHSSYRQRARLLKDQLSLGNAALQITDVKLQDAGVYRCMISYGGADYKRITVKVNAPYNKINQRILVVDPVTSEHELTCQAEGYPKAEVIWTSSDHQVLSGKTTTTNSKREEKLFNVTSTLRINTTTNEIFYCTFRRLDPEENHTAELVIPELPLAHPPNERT
As to the kind of experiment: PD-1/PD-L1 Homogenous Time-Resolved Fluorescence (HTRF) binding assay.
Details: not given
The text has this:
The ability of the compounds of formula (I) to bind to PD-L1 was investigated using a PD-1/PD-L1 Homogenous Time-Resolved Fluorescence (HTRF) binding assay.
The interaction of PD-1 and PD-L1 can be assessed using soluble, purified preparations of the extracellular domains of the two proteins. The PD-1 and PD-L1 protein extracellular domains were expressed as fusion proteins with detection tags, for PD-1, the tag was the Fc portion of Immunoglobulin (PD-1-Ig) and for PD-L1 it was the 6 histidine motif (PD-L1-His). All binding studies were performed in an HTRF assay buffer consisting of dPBS supplemented with 0.1% […] bovine serum albumin and 0.05% (v/v) Tween-20. For the h/PD-L1-His binding assay, inhibitors were pre-incubated with PD-L1-His (10 nM final) for 15 m in 4 μl of assay buffer, followed by addition of PD-1-Ig (20 nM final) in 1 μl of assay buffer and further incubation for 15 m. HTRF detection was achieved using europium crypate-labeled anti-Ig (1 nM final) and allophycocyanin (APC) labeled anti-His (20 nM final). Antibodies were diluted in HTRF detection buffer and 5 μl was dispensed on top of the binding reaction. […] Additional binding assays were established between the human proteins PD-1-Ig/PD-L2-His (20 & 5 nM, respectively) and CD80-His/PD-L1-Ig (100 & 10 nM, respectively). […]
A general note: TR-FRET usually uses a lanthanide donor and a delayed reading to cut background.
As for `CCCC[C@H]1C(=O)N(C)[C@@H](CCCC)C(=O)N[C@@H](CC(C)C)C(=O)N[C@H](C(=O)NCC(N)=O)CSCC(=O)N[C@@H](Cc2ccc(O)cc2)C(=O)N(C)[C@@H](C)C(=O)N[C@@H](CC(N)=O)C(=O)N2CCC[C@H]2C(=O)N[C@@H](CNC(=S)Nc2cccc([N+](=O)[O-])c2)C(=O)N[C@@H](CC(C)C)C(=O)N2C[C@H](O)C[C@H]2C(=O)N[C@@H](Cc2c[nH]c3ccccc23)C(=O)N[C@@H](CCNC(=S)Nc2cccc([N+](=O)[O-])c2)C(=O)N[C@@H](Cc2cn(CC(=O)O)c3ccccc23)C(=O)N1C` [Example 1036] ({CH2CO}-Y[NMeA]NP[Dap](X95)L[Hyp]W[Dab](X95)[Trp(1-CH2COOH)][NMeNle][NMeNle]LCG-NH2; thioether N-14), the IC50 stood at 2.6 nM.

Still in this test, the particulars now being: PD-L1-His 10 nM pre-incubated with inhibitor, PD-1-Ig 20 nM; read-out: HTRF IC50.
Consider `CCCC[C@H]1C(=O)N(C)[C@@H](CCCC)C(=O)N[C@@H](CC(C)C)C(=O)N[C@H](C(=O)NCC(N)=O)CSCC(=O)N[C@@H](Cc2ccc(O)cc2)C(=O)N(C)[C@@H](C)C(=O)N[C@@H](CC(N)=O)C(=O)N2CCC[C@H]2C(=O)N[C@@H](CNC(=S)Nc2ccc(-c3cnco3)c(OC)c2)C(=O)N[C@@H](CC(C)C)C(=O)N2C[C@H](O)C[C@H]2C(=O)N[C@@H](Cc2c[nH]c3ccccc23)C(=O)N[C@@H](CCN)C(=O)N[C@@H](Cc2cn(CC(=O)O)c3ccccc23)C(=O)N1C` [Example 1028] ({CH2CO}-Y[NMeA]NP[Dap](X50)L[Hyp]W[Dab][Trp(1-CH2COOH)][NMeNle][NMeNle]LCG-NH2; thioether N-14), for which the IC50 is 4.4 nM.
For `CCCC[C@H]1C(=O)N(C)[C@@H](CCCC)C(=O)N[C@@H](CC(C)C)C(=O)N[C@H](C(=O)NCC(N)=O)CSCC(=O)N[C@@H](Cc2ccc(O)cc2)C(=O)N(C)[C@@H](C)C(=O)N[C@@H](CC(N)=O)C(=O)N2CCC[C@H]2C(=O)N[C@@H](CNC(=S)Nc2ccc(-c3cnco3)c(OC)c2)C(=O)N[C@@H](CC(C)C)C(=O)N2C[C@H](O)C[C@H]2C(=O)N[C@@H](Cc2c[nH]c3ccccc23)C(=O)N[C@@H](CCNC(=S)Nc2ccc(-c3cnco3)c(OC)c2)C(=O)N[C@@H](Cc2cn(CC(=O)O)c3ccccc23)C(=O)N1C` [Example 1029] ({CH2CO}-Y[NMeA]NP[Dap](X50)L[Hyp]W[Dab](X50)[Trp(1-CH2COOH)][NMeNle][NMeNle]LCG-NH2; thioether N-14), the IC50 is 3.1 nM.
Still for that read-out and setting: next, `CCCC[C@H]1C(=O)N(C)[C@@H](CCCC)C(=O)N[C@@H](CC(C)C)C(=O)N[C@H](C(=O)NCC(N)=O)CSCC(=O)N[C@@H](Cc2ccc(O)cc2)C(=O)N(C)[C@@H](C)C(=O)N[C@@H](CC(N)=O)C(=O)N2CCC[C@H]2C(=O)N[C@@H](CNC(=S)Nc2ccc(F)cc2Cl)C(=O)N[C@@H](CC(C)C)C(=O)N2C[C@H](O)C[C@H]2C(=O)N[C@@H](Cc2c[nH]c3ccccc23)C(=O)N[C@@H](CCN)C(=O)N[C@@H](Cc2cn(CC(=O)O)c3ccccc23)C(=O)N1C` [Example 1030] ({CH2CO}-Y[NMeA]NP[Dap](X9)L[Hyp]W[Dab][Trp(1-CH2COOH)][NMeNle][NMeNle]LCG-NH2; thioether N-14): 2.6 nM; `CCCC[C@H]1C(=O)N(C)[C@@H](CCCC)C(=O)N[C@@H](CC(C)C)C(=O)N[C@H](C(=O)NCC(N)=O)CSCC(=O)N[C@@H](Cc2ccc(O)cc2)C(=O)N(C)[C@@H](C)C(=O)N[C@@H](CC(N)=O)C(=O)N2CCC[C@H]2C(=O)N[C@@H](CNC(=S)Nc2ccc(F)cc2Cl)C(=O)N[C@@H](CC(C)C)C(=O)N2C[C@H](O)C[C@H]2C(=O)N[C@@H](Cc2c[nH]c3ccccc23)C(=O)N[C@@H](CCNC(=S)Nc2ccc(F)cc2Cl)C(=O)N[C@@H](Cc2cn(CC(=O)O)c3ccccc23)C(=O)N1C` [Example 1031] ({CH2CO}-Y[NMeA]NP[Dap](X9)L[Hyp]W[Dab](X9)[Trp(1-CH2COOH)][NMeNle][NMeNle]LCG-NH2; thioether N-14): 2.8 nM; `CCCC[C@H]1C(=O)N(C)[C@@H](CCCC)C(=O)N[C@@H](CC(C)C)C(=O)N[C@H](C(=O)NCC(N)=O)CSCC(=O)N[C@@H](Cc2ccc(O)cc2)C(=O)N(C)[C@@H](C)C(=O)N[C@@H](CC(N)=O)C(=O)N2CCC[C@H]2C(=O)N[C@@H](CNC(=S)Nc2ccc(C(F)(F)F)cc2)C(=O)N[C@@H](CC(C)C)C(=O)N2C[C@H](O)C[C@H]2C(=O)N[C@@H](Cc2c[nH]c3ccccc23)C(=O)N[C@@H](CCN)C(=O)N[C@@H](Cc2cn(CC(=O)O)c3ccccc23)C(=O)N1C` [Example 1034] ({CH2CO}-Y[NMeA]NP[Dap](X44)L[Hyp]W[Dab][Trp(1-CH2COOH)][NMeNle][NMeNle]LCG-NH2; thioether N-14): 3.5 nM.
Same read-out and setting: next, `CCCC[C@H]1C(=O)N(C)[C@@H](CCCC)C(=O)N[C@@H](CC(C)C)C(=O)N[C@H](C(=O)NCC(N)=O)CSCC(=O)N[C@@H](Cc2ccc(O)cc2)C(=O)N(C)[C@@H](C)C(=O)N[C@@H](CC(N)=O)C(=O)N2CCC[C@H]2C(=O)N[C@@H](CNC(=S)Nc2ccc(C(F)(F)F)cc2)C(=O)N[C@@H](CC(C)C)C(=O)N2C[C@H](O)C[C@H]2C(=O)N[C@@H](Cc2c[nH]c3ccccc23)C(=O)N[C@@H](CCNC(=S)Nc2ccc(C(F)(F)F)cc2)C(=O)N[C@@H](Cc2cn(CC(=O)O)c3ccccc23)C(=O)N1C` [Example 1035] ({CH2CO}-Y[NMeA]NP[Dap](X44)L[Hyp]W[Dab](X44)[Trp(1-CH2COOH)][NMeNle][NMeNle]LCG-NH2; thioether N-14): 2.1 nM; `CCCC[C@H]1C(=O)N(C)[C@@H](CCCC)C(=O)N[C@@H](CC(C)C)C(=O)N[C@H](C(=O)NCC(N)=O)CSCC(=O)N[C@@H](Cc2ccc(O)cc2)C(=O)N(C)[C@@H](C)C(=O)N[C@@H](CC(N)=O)C(=O)N2CCC[C@H]2C(=O)N[C@@H](CNC(=S)Nc2cccc([N+](=O)[O-])c2)C(=O)N[C@@H](CC(C)C)C(=O)N2C[C@H](O)C[C@H]2C(=O)N[C@@H](Cc2c[nH]c3ccccc23)C(=O)N[C@@H](CCN)C(=O)N[C@@H](Cc2cn(CC(=O)O)c3ccccc23)C(=O)N1C` [Example 1037] ({CH2CO}-Y[NMeA]NP[Dap](X95)L[Hyp]W[Dab][Trp(1-CH2COOH)][NMeNle][NMeNle]LCG-NH2; thioether N-14): 2.8 nM.
On the same count and under the same terms, next, `CCCC[C@H]1C(=O)N(C)[C@@H](CCCC)C(=O)N[C@@H](CC(C)C)C(=O)N[C@H](C(=O)NCC(N)=O)CSCC(=O)N[C@@H](Cc2ccc(O)cc2)C(=O)N(C)[C@@H](C)C(=O)N[C@@H](CC(N)=O)C(=O)N2CCC[C@H]2C(=O)N[C@@H](CNC(=S)Nc2c(Cl)cccc2Cl)C(=O)N[C@@H](CC(C)C)C(=O)N2C[C@H](O)C[C@H]2C(=O)N[C@@H](Cc2c[nH]c3ccccc23)C(=O)N[C@@H](CCN)C(=O)N[C@@H](Cc2cn(CC(=O)O)c3ccccc23)C(=O)N1C` [Example 1038] ({CH2CO}-Y[NMeA]NP[Dap](X85)L[Hyp]W[Dab][Trp(1-CH2COOH)][NMeNle][NMeNle]LCG-NH2; thioether N-14): 2.4 nM; `CCCC[C@H]1C(=O)N(C)[C@@H](CCCC)C(=O)N[C@@H](CC(C)C)C(=O)N[C@H](C(=O)NCC(N)=O)CSCC(=O)N[C@@H](Cc2ccc(O)cc2)C(=O)N(C)[C@@H](C)C(=O)N[C@@H](CC(N)=O)C(=O)N2CCC[C@H]2C(=O)N[C@@H](CNC(=S)Nc2c(Cl)cccc2Cl)C(=O)N[C@@H](CC(C)C)C(=O)N2C[C@H](O)C[C@H]2C(=O)N[C@@H](Cc2c[nH]c3ccccc23)C(=O)N[C@@H](CCNC(=S)Nc2c(Cl)cccc2Cl)C(=O)N[C@@H](Cc2cn(CC(=O)O)c3ccccc23)C(=O)N1C` [Example 1039] ({CH2CO}-Y[NMeA]NP[Dap](X85)L[Hyp]W[Dab](X85)[Trp(1-CH2COOH)][NMeNle][NMeNle]LCG-NH2; thioether N-14): 0.6 nM; `CCCC[C@H]1C(=O)N(C)[C@@H](CCCC)C(=O)N[C@@H](CC(C)C)C(=O)N[C@H](C(=O)NCC(N)=O)CSCC(=O)N[C@@H](Cc2ccc(O)cc2)C(=O)N(C)[C@@H](C)C(=O)N[C@@H](CC(N)=O)C(=O)N2CCC[C@H]2C(=O)N[C@@H](CNC(=S)Nc2ccc(NC(=O)OC(C)(C)C)cc2)C(=O)N[C@@H](CC(C)C)C(=O)N2C[C@H](O)C[C@H]2C(=O)N[C@@H](Cc2c[nH]c3ccccc23)C(=O)N[C@@H](CCN)C(=O)N[C@@H](Cc2cn(CC(=O)O)c3ccccc23)C(=O)N1C` [Example 1040] ({CH2CO}-Y[NMeA]NP[Dap](X65)L[Hyp]W[Dab][Trp(1-CH2COOH)][NMeNle][NMeNle]LCG-NH2; thioether N-14): 3.9 nM.
Take `CCCC[C@H]1C(=O)N(C)[C@@H](CCCC)C(=O)N[C@@H](CC(C)C)C(=O)N[C@H](C(=O)NCC(N)=O)CSCC(=O)N[C@@H](Cc2ccc(O)cc2)C(=O)N(C)[C@@H](C)C(=O)N[C@@H](CC(N)=O)C(=O)N2CCC[C@H]2C(=O)N[C@@H](CNC(=S)Nc2ccc(NC(=O)OC(C)(C)C)cc2)C(=O)N[C@@H](CC(C)C)C(=O)N2C[C@H](O)C[C@H]2C(=O)N[C@@H](Cc2c[nH]c3ccccc23)C(=O)N[C@@H](CCNC(=S)Nc2ccc(NC(=O)OC(C)(C)C)cc2)C(=O)N[C@@H](Cc2cn(CC(=O)O)c3ccccc23)C(=O)N1C` [Example 1041] ({CH2CO}-Y[NMeA]NP[Dap](X65)L[Hyp]W[Dab](X65)[Trp(1-CH2COOH)][NMeNle][NMeNle]LCG-NH2; thioether N-14): the IC50 stood at 2.3 nM.
